Test results published in patent publication US11820766B2, “Monoacylglycerol lipase modulators” (Janssen Pharmaceutica NV, priority 2018, dated 2023).
pIC50: −log10 of the molar value.

Biological target: T1, human MGL from HeLa cells (Homo sapiens, UniProt Q99685)
T1 construct: combining endogenously expressed MGL from HeLa cells with test compounds; endogenous in cells; host or cells: HeLa cells / cell homogenates
T1 sequence (Q99685 1-303): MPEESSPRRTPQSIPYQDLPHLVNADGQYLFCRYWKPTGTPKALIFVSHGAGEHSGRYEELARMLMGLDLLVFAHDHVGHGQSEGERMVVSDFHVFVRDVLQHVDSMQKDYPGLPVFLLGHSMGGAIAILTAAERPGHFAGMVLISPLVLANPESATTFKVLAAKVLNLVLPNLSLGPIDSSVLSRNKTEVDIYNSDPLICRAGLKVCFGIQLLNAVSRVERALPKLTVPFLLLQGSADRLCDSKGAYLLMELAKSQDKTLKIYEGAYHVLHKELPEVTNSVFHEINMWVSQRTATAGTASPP
Test: In vitro MGL activity assay: [glycerol-1,3-3H]-oleyl glycerol cleavage by MGL from HeLa cells
Type: biochemical
Conditions: 300 nM [Glycerol-1,3-3H]-oleyl glycerol, one hour
From the text: MGL is the predominant hydrolase in HeLa cells/cell homogenates.

Point of comparison: `COc1cccn2ncc(C(=O)N3CCc4c(nn(C)c4-c4cc(F)c(F)c(F)c4)[C@@H]3C)c12` [Example 390, [(7S)-2,7-Dimethyl-3-(3,4,5-trifluorophenyl)-5,7-dihydro-4H-pyrazolo[3,4-c]pyridin-6-yl]-(4-methoxypyrazolo[1,5-a]pyridin-3-yl)methanone], pIC50 7.90. Against it:
- Cc1cnc2c(C(=O)N3CCc4c(nn(C)c4-c4cc(F)c(F)c(F)c4)[C@@H]3C)cccc2n1 [Example 474, [(7S)-2,7-Dimethyl-3-(3,4,5-trifluorophenyl)-5,7-dihydro-4H-pyrazolo[3,4-c]pyridin-6-yl]-(2-methylquinoxalin-5-yl)methanone] — 0.83 log units lower, 7.07
- C[C@H]1c2nn(C)c(-c3cc(F)c(F)c(F)c3)c2CCN1C(=O)c1cn(C)nc1C1(F)CC1 [Example 348, [(7S)-2,7-Dimethyl-3-(3,4,5-trifluorophenyl)-5,7-dihydro-4H-pyrazolo[3,4-c]pyridin-6-yl]-[3-(1-fluorocyclopropyl)-1-methyl-pyrazol-4-yl]methanone] — 1.83 log units lower, 6.07
- C[C@H]1c2nn(C)c(-c3cc(F)c(F)c(F)c3)c2CCN1C(=O)c1cccc2oc(=O)[nH]c12 [Example 584, 4-[(7S)-2,7-Dimethyl-3-(3,4,5-trifluorophenyl)-5,7-dihydro-4H-pyrazolo[3,4-c]pyridine-6-carbonyl]-3H-1,3-benzoxazol-2-one] — 1.38 log units lower, 6.52
- COc1nccc(C(=O)N2CCc3c(nn(C)c3-c3cc(F)cc(OC(F)F)c3)[C@@H]2C)c1C [Example 597, [(7S)-3-[3-(Difluoromethoxy)-5-fluoro-phenyl]-2,7-dimethyl-5,7-dihydro-4H-pyrazolo[3,4-c]pyridin-6-yl]-(2-methoxy-3-methyl-4-pyridyl)methanone] — 0.30 log units lower, 7.60
- C[C@H]1c2nn(C)c(-c3cc(F)c(F)c(F)c3)c2CCN1C(=O)c1cnn(C)c1C1CC1(F)F (stereo partly drawn) [Example 336, (5-(2,2-Difluorocyclopropyl)-1-methyl-1H-pyrazol-4-yl)((S)-2,7-dimethyl-3-(3,4,5-trifluorophenyl)-4,5-dihydro-2H-pyrazolo[3,4-c]pyridin-6-yl)methanone] — within 0.2 log units, 8.06
- Cc1cc2c(C(=O)N3CCc4c(nn(C)c4-c4cc(F)c(F)c(F)c4)[C@@H]3C)ncnc2n1C [Example 469, (6,7-Dimethylpyrrolo[2,3-d]pyrimidin-4-yl)-[(7S)-2,7-dimethyl-3-(3,4,5-trifluorophenyl)-5,7-dihydro-4H-pyrazolo[3,4-c]pyridin-6-yl]methanone] — 0.46 log units lower, 7.44
- COc1ccnc(C(=O)N2CCc3c(nn(C)c3-c3cc(F)cc(C(F)F)c3)[C@@H]2C)c1Cl [Example 608, (3-Chloro-4-methoxy-2-pyridyl)-[(7S)-3-[3-(difluoromethyl)-5-fluoro-phenyl]-2,7-dimethyl-5,7-dihydro-4H-pyrazolo[3,4-c]pyridin-6-yl]methanone] — 0.24 log units lower, 7.66
- Cc1cn2c(C(=O)N3CCc4c(nn(C)c4-c4cc(F)c(F)c(F)c4)[C@@H]3C)cccc2n1 [Example 394, [(7S)-2,7-Dimethyl-3-(3,4,5-trifluorophenyl)-5,7-dihydro-4H-pyrazolo[3,4-c]pyridin-6-yl]-(2-methylimidazo[1,2-a]pyridin-5-yl)methanone] — 1.05 log units lower, 6.85
- C[C@H]1c2nn(C)c(-c3cc(F)c(F)c(F)c3)c2CCN1C(=O)c1ccc2cnccc2c1 [Example 544, [(7S)-2,7-Dimethyl-3-(3,4,5-trifluorophenyl)-5,7-dihydro-4H-pyrazolo[3,4-c]pyridin-6-yl]-(6-isoquinolyl)methanone] — within 0.2 log units, 7.99
- C[C@H]1c2nn(C)c(-c3ccc(F)c(Cl)c3)c2CCN1C(=O)c1ccc2ncccc2c1 [Example 505, [(7S)-3-(3-Chloro-4-fluoro-phenyl)-2,7-dimethyl-5,7-dihydro-4H-pyrazolo[3,4-c]pyridin-6-yl]-(6-quinolyl)methanone] — 0.23 log units higher, 8.13
- C[C@H]1c2nn(C)c(-c3cc(F)c(F)c(F)c3)c2CCN1C(=O)c1ncnc2nc[nH]c12 [Example 470, [(7S)-2,7-Dimethyl-3-(3,4,5-trifluorophenyl)-5,7-dihydro-4H-pyrazolo[3,4-c]pyridin-6-yl]-(7H-purin-6-yl)methanone] — 2.42 log units lower, 5.48
- COc1c(C(=O)N2CCc3c(nn(C)c3-c3cc(F)c(F)c(F)c3)[C@@H]2C)ccnc1C [Example 599, [(7S)-2,7-Dimethyl-3-(3,4,5-trifluorophenyl)-5,7-dihydro-4H-pyrazolo[3,4-c]pyridin-6-yl]-(3-methoxy-2-methyl-4-pyridyl)methanone] — 0.75 log units lower, 7.15
- C[C@H]1c2nn(C)c(-c3cc(F)c(F)c(F)c3)c2CCN1C(=O)c1ccc2c(c1)CCCO2 [Example 580, Chroman-6-yl-[(7S)-2,7-dimethyl-3-(3,4,5-trifluorophenyl)-5,7-dihydro-4H-pyrazolo[3,4-c]pyridin-6-yl]methanone] — within 0.2 log units, 7.71

Same assay, conditions: 300 nM [Glycerol-1,3-3H]-oleyl glycerol, one hour incubation

Point of comparison: `CC1c2nn(C)c(-c3cccc4c3ccn4C)c2CCN1C(=O)c1ccc2ncccc2c1` (centres unmarked) [Example 249, (2,7-Dimethyl-3-(1-methyl-1H-indol-4-yl)-2,4,5,7-tetrahydro-6H-pyrazolo[3,4-c]pyridin-6-yl)(quinolin-6-yl)methanone], pIC50 5.82. Against it:
- C[C@H]1c2nn(C)c(-c3cc(F)c(F)c(F)c3)c2CCN1C(=O)c1cccc2ccn(C)c12 [Example 206, (S)-(2,7-Dimethyl-3-(3,4,5-trifluorophenyl)-2,4,5,7-tetrahydro-6H-pyrazolo[3,4-c]pyridin-6-yl)(1-methyl-1H-indol-7-yl)methanone] — 2.49 log units higher, 8.31
- COc1cc(C(=O)N2CCc3c(nn(C)c3-c3cc(F)c(F)c(F)c3)[C@@H]2C)nn1C [Example 200, (S)-(2,7-Dimethyl-3-(3,4,5-trifluorophenyl)-2,4,5,7-tetrahydro-6H-pyrazolo[3,4-c]pyridin-6-yl)(5-methoxy-1-methyl-1H-pyrazol-3-yl)methanone] — 0.71 log units higher, 6.53
- C[C@H]1c2nn(C)c(-c3cc(F)cc(Cl)c3)c2CCN1C(=O)c1ccc2ncccc2c1 [Example 178, (S)-(3-(3-Chloro-5-fluorophenyl)-2,7-dimethyl-2,4,5,7-tetrahydro-6H-pyrazolo[3,4-c]pyridin-6-yl)(quinolin-6-yl)methanone] — 2.56 log units higher, 8.38
- C[C@H]1c2nn(C)c(-c3cc(F)c(F)c(F)c3)c2CCN1C(=O)c1noc2ccccc12 [Example 215, (S)-Benzo[d]isoxazol-3-yl(2,7-dimethyl-3-(3,4,5-trifluorophenyl)-2,4,5,7-tetrahydro-6H-pyrazolo[3,4-c]pyridin-6-yl)methanone] — 2.68 log units higher, 8.50
- C[C@H]1c2nn(C)c(-c3cc(F)cc(F)c3)c2CCN1C(=O)c1cccc(OCCF)c1Cl [Example 145, [2-Chloro-3-(2-fluoroethoxy)phenyl]-[(7S)-3-(3,5-difluorophenyl)-2,7-dimethyl-5,7-dihydro-4H-pyrazolo[3,4-c]pyridin-6-yl]methanone] — 2.85 log units higher, 8.67
- C[C@H]1c2nn(C)c(-c3cccc(Cl)c3)c2CCN1C(=O)c1cc2ncccc2o1 [Example 129, (S)-(3-(3-Chlorophenyl)-2,7-dimethyl-2,4,5,7-tetrahydro-6H-pyrazolo[3,4-c]pyridin-6-yl)(furo[3,2-b]pyridin-2-yl)methanone] — 1.51 log units higher, 7.33
- COc1cnc(C)c(C(=O)N2CCc3c(nn(C)c3-c3cc(F)c(F)c(F)c3)[C@@H]2C)c1 [Example 308, [(7S)-2,7-Dimethyl-3-(3,4,5-trifluorophenyl)-5,7-dihydro-4H-pyrazolo[3,4-c]pyridin-6-yl]-(5-methoxy-2-methyl-3-pyridyl)methanone] — 1.12 log units higher, 6.94
- C[C@H]1c2nn(C)c(-c3cc(F)c(F)c(F)c3)c2CCN1C(=O)c1cnn(C2CC2)c1 [Example 331, (1-Cyclopropylpyrazol-4-yl)-[(7S)-2,7-dimethyl-3-(3,4,5-trifluorophenyl)-5,7-dihydro-4H-pyrazolo[3,4-c]pyridin-6-yl]methanone] — 0.78 log units higher, 6.60
- C[C@H]1c2nn(C)c(-c3cc(F)c(F)c(F)c3)c2CCN1C(=O)c1cnn(C(F)(F)F)c1 [Example 329, [(7S)-2,7-Dimethyl-3-(3,4,5-trifluorophenyl)-5,7-dihydro-4H-pyrazolo[3,4-c]pyridin-6-yl]-[1-(trifluoromethyl)pyrazol-4-yl]methanone] — 0.53 log units lower, 5.29
- Cn1nc2c(c1-c1ccccc1)CCN(C(=O)c1nc3ccccc3s1)C2 [Example 62, Benzo[d]thiazol-2-yl(2-methyl-3-phenyl-2,4,5,7-tetrahydro-6H-pyrazolo[3,4-c]pyridin-6-yl)methanone] — within 0.2 log units, 5.79
- C[C@H]1c2nn(C)c(-c3cccc(Cl)c3)c2CCN1C(=O)c1ccc2cc[nH]c2n1 [Example 130, (S)-(3-(3-Chlorophenyl)-2,7-dimethyl-2,4,5,7-tetrahydro-6H-pyrazolo[3,4-c]pyridin-6-yl)(1H-pyrrolo[2,3-b]pyridin-6-yl)methanone] — 0.74 log units higher, 6.56
- Cc1cc(C(=O)N2CCc3c(nn(C)c3-c3cc(F)c(F)c(F)c3)[C@@H]2C)c2ccccc2n1 [Example 239, (S)-(2,7-Dimethyl-3-(3,4,5-trifluorophenyl)-2,4,5,7-tetrahydro-6H-pyrazolo[3,4-c]pyridin-6-yl)(2-methylquinolin-4-yl)methanone] — 2.61 log units higher, 8.43
- C[C@H]1c2nn(C)c(-c3cc(F)c(F)c(F)c3)c2CCN1C(=O)c1cccn2nccc12 [Example 227, (S)-(2,7-Dimethyl-3-(3,4,5-trifluorophenyl)-2,4,5,7-tetrahydro-6H-pyrazolo[3,4-c]pyridin-6-yl)(pyrazolo[1,5-a]pyridin-4-yl)methanone] — 2.20 log units higher, 8.02
- COc1c(Cl)cccc1C(=O)N1CCc2c(nn(C)c2-c2ccccc2)C1 [Example 14, (3-Chloro-2-methoxy-phenyl)-(2-methyl-3-phenyl-5,7-dihydro-4H-pyrazolo[3,4-c]pyridin-6-yl)methanone] — 0.23 log units lower, 5.59
